# Data reported in patent publication US11033527B2, “Non-hormonal treatment of the genitourinary syndrome of menopause” (IMMUGEN PHARMA LLC, priority 2018, dated 2021).
# Where “and” joins values, the source holds several entries; their conditions need not be identical. Equal values may be shown once.
# How the values were obtained:
# vaginal tissue construct = test: microarray analysis of differential gene expression (Affymetrix Human Gene 1.0 ST arrays), tissues treated for seven days via culture medium; type: cell-based
# Excerpt: The data from the Affymetrix Human Gene 1.0 ST arrays were normalized using the Robust Multiarray Average (RMA) algorithm and a Chip Definition File (CDF) that maps the probes on the array to unique Entrez Gene identifiers. The result is a matrix in which each column corresponds to a sample. The expression values are log 2-transformed by default.
# By using a fold change >1.5, an analysis of differentially expressed genes was done to identify those genes which were involved in the cornified envelope, keratinocyte differentiation, cell differentiation, epidermis development, epithelial cell differentiation, junctional proteins and signaling, immune response and innate immune response.
# EpiVaginal tissues = test: macrophage infiltration in treated EpiVaginal tissues (barrier function), four hours in the presence of TNF-α; type: cell-based; details: vs. 28% into the untreated tissue; macrophages cultured with the tissue for four hours in the presence of TNF-α
# Excerpt: FIG. 1 is a graph showing macrophage infiltration in hormone (estrogen) and L759,633-treated EpiVaginal tissues. L759,633 had the most striking effect on macrophage infiltration: only 6% of cells infiltrated into the tissue past 90 μm (vs. 28% into the untreated tissue, p<0.006 ANOVA). […] U=untreated control; E=estradiol; P=progesterone; and IMG=the cannabinoid L759,633.
# Many of the above-noted genes are differentially regulated by estradiol in menopausal tissue. […] With respect to the barrier function, only 6% of macrophages which had been cultured with the tissue for four hours in the presence of TNF-α were capable of infiltrating into the tissue past 90 um (vs. 28% into the untreated tissue, p<0.006 ANOVA). […] This would indicate that the increased gene expression of the proteins involved with cross-linking of the keratin fibers, filagrins and desmosomal cadherins are all contributing to the fortification of the vaginal mucosa which would prevent the infiltration of pathogens and prevent the loss of solutes and water from within the tissue.
# [1] = molecular target: endocannabinoid receptor type 2 (CB2) (Homo sapiens, UniProt P34972); details: cited from earlier work
# [2] = down-regulated by this fold, given without sign
# Chain of endocannabinoid receptor type 2 (CB2) (P34972 whole entry, species assumed): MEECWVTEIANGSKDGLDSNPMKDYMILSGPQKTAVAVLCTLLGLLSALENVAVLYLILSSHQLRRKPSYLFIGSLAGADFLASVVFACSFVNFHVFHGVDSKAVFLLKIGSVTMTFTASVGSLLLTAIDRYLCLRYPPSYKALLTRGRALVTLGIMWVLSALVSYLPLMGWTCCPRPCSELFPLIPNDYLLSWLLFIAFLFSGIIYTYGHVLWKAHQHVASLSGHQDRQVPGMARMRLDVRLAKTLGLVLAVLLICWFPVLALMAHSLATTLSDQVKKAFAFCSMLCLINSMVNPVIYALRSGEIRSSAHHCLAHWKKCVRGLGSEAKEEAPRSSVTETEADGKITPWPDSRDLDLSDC
smiles,measurement,setting,value
"CCCCCCC(C)(C)c1cc(OC)c2c(c1)OC(C)(C)[C@@H]1CC=C(C)C[C@@H]21 [L759,633]",SPRR2D Fold Change,vaginal tissue construct,3.431 fold
same,WFDC12 Fold Change,vaginal tissue construct,7.884 fold
same,CFB down-regulation,vaginal tissue construct; [2],2.285 fold
same,CFH down-regulation,vaginal tissue construct; [2],1.769 fold
same,AGR2 Fold Change,vaginal tissue construct; gene Anterior gradient homolog 2 (Xenopus laevis),−3.1 fold
same,CXCL8 Expr Fold Change,vaginal tissue construct; gene C-X-C motif chemokine ligand 8,−2.298 fold
same,CXCL17 Expr Fold Change,vaginal tissue construct; gene C-X-C motif chemokine ligand 17,−2.038 fold
same,CXCR2 Expr Fold Change,vaginal tissue construct; gene C-X-C motif chemokine receptor 2,1.871 fold
same,CD14 Expr Fold Change,vaginal tissue construct; gene CD14 molecule,−2.154 fold
same,CD74 Expr Fold Change,vaginal tissue construct; gene CD74 molecule,−2.103 fold
same,CD151 Expr Fold Change,vaginal tissue construct; gene CD151 molecule (Raph blood group),−1.664 fold
same,CD244 Expr Fold Change,vaginal tissue construct; gene CD244 molecule,2.837 fold
same,CDSN Fold Change,vaginal tissue construct; gene Corneodesmosin,9.465 fold
same,CCL28 Expr Fold Change,vaginal tissue construct; gene C−C motif chemokine ligand 28,−2.504 fold
same,FYB1 Expr Fold Change,vaginal tissue construct; gene FYN binding protein 1,−2.604 fold
same,IFNE Fold Change,vaginal tissue construct; gene Interferon Epsilon,5.496 fold
same,IL19 Fold Change,vaginal tissue construct; gene Interleukin 19,−3.5 fold
same,NLRP10 Fold Change,vaginal tissue construct; gene NLR family pyrin domain containing 10,15.93 fold
same,RNAse7 Fold Change,vaginal tissue construct; gene RNAse family,8.158 fold
same,TIAM1 Expr Fold Change,vaginal tissue construct; gene T cell lymphoma invasion and metastasis 1,2.249 fold
same,TNFAIP8 Expr Fold Change,vaginal tissue construct; gene TNF alpha induced protein 8,−1.601 fold
same,TNFRSF10C Expr Fold Change,vaginal tissue construct; gene TNF receptor superfamily member 10c,−2.458 fold
same,TNFRSF11B Expr Fold Change,vaginal tissue construct; gene TNF receptor superfamily member 11b,−2.012 fold
same,TSPAN1 Fold Change,vaginal tissue construct; gene Tetraspanin 1,−2.3 fold
same,TGM1 Fold Change,vaginal tissue construct; gene Transglutaminase 1,1.966 fold
same,TGM3 Fold Change,vaginal tissue construct; gene Transglutaminase 3,30.074 fold and 30.1 fold
same,TGM5 Fold Change,vaginal tissue construct; gene Transglutaminase 5,2.237 fold
same,TRIM31 Fold Change,vaginal tissue construct; gene Tripartite motif-containing 31,−5.9 fold
same,VTCN1 Expr Fold Change,vaginal tissue construct; gene V-set domain containing T cell activation inhibitor 1,−4.666 fold
same,WFDC2 Fold Change,vaginal tissue construct; gene WAP four-disulfide core domain 2,−2.8 fold
same,WFDC5 Fold Change,vaginal tissue construct; gene WAP four-disulfide core domain 5,3.139 fold
same,ALOX12B Fold Change,"vaginal tissue construct; gene arachidonate 12-lipoxygenase, 12R type",6.6 fold and 6.683 fold
same,ALOX12 Fold Change,vaginal tissue construct; gene arachidonate 12-lipoygenase,1.5 fold
same,ALOXE3 Fold Change,vaginal tissue construct; gene arachidonate lipoxygenase 3,3.659 fold
same,ASS1 Fold Change,vaginal tissue construct; gene arginosuccinate synthetase 1,−2.8 fold
same,CLDN17 Fold Change,vaginal tissue construct; gene claudin 17,11 fold
same,CCDC59 Expr Fold Change,vaginal tissue construct; gene coiled-coil domain containing 59,−1.795 fold
same,CSF2RB Expr Fold Change,vaginal tissue construct; gene colony stimulating factor 2 receptor beta common subunit,2.79 fold
same,CFH Expr Fold Change,vaginal tissue construct; gene complement factor H,−1.769 fold
same,CNFN Fold Change,vaginal tissue construct; gene cornifelin,1.62 fold
same,CRCT1 Fold Change,vaginal tissue construct; gene cysteine-rich C-terminal 1,2.6 fold
same,DMKN Fold Change,vaginal tissue construct; gene dermokine,2.362 fold
same,DCS3 Fold Change,vaginal tissue construct; gene descmocollin 3,1.9 fold
same,DSC1 Fold Change,vaginal tissue construct; gene desmocollin 1,10.494 fold
same,DSC2 Fold Change,vaginal tissue construct; gene desmocollin 2,1.7 fold
same,DSG1 Fold Change,vaginal tissue construct; gene desmoglein 1,9.191 fold and 8.7 fold
same,FLG Fold Change,vaginal tissue construct; gene filaggrin,4.549 fold
same,FLG2 Fold Change,vaginal tissue construct; gene filaggrin family member 2,10.449 fold
same,GYS2 Fold Change,vaginal tissue construct; gene glycogen synthase 2 (liver),2.9 fold
same,KPRP Fold Change,vaginal tissue construct; gene human keratinocyte proline rich protein,25.318 fold and 25.3 fold
same,IFIT5 Expr Fold Change,vaginal tissue construct; gene interferon induced protein with tetratricopeptide repeats 5,−2.183 fold
same,IFIH1 Expr Fold Change,vaginal tissue construct; gene interferon induced with helicase C domain 1,−1.922 fold
same,IRF1 Expr Fold Change,vaginal tissue construct; gene interferon regulatory factor 1,−3.253 fold
same,IRF9 Expr Fold Change,vaginal tissue construct; gene interferon regulatory factor 9,−1.535 fold
same,IL1RL2 Expr Fold Change,vaginal tissue construct; gene interleukin 1 receptor like 2,2.508 fold
same,IL7R Expr Fold Change,vaginal tissue construct; gene interleukin 7 receptor,−2.852 fold
same,IL18BP Expr Fold Change,vaginal tissue construct; gene interleukin 18 binding protein,1.532 fold
same,IL23A Expr Fold Change,vaginal tissue construct; gene interleukin 23 subunit alpha,2.677 fold
same,IL33 Expr Fold Change,vaginal tissue construct; gene interleukin 33,−3.109 fold
same,IL36A Expr Fold Change,vaginal tissue construct; gene interleukin 36 alpha,4.185 fold
same,IL36RN Expr Fold Change,vaginal tissue construct; gene interleukin 36 receptor antagonist,4.668 fold
same,KLK6 Fold Change,vaginal tissue construct; gene kallikrein related peptidase 6,4.651 fold
same,KLK8 Fold Change,vaginal tissue construct; gene kallikrein related peptidase 8,1.842 fold
same,KLK10 Fold Change,vaginal tissue construct; gene kallikrein related peptidase 10,2.554 fold
same,KLK12 Fold Change,vaginal tissue construct; gene kallikrein related peptidase 12,3.933 fold
same,KLK13 Fold Change,vaginal tissue construct; gene kallikrein related peptidase 13,3.957 fold
same,KRT1 Fold Change,vaginal tissue construct; gene keratin 1,10.739 fold and 10.5 fold
same,KRT2 Fold Change,vaginal tissue construct; gene keratin 2,1.801 fold
same,KRT20 Fold Change,vaginal tissue construct; gene keratin 20,−3.42 fold
same,KRT23 Fold Change,vaginal tissue construct; gene keratin 23,1.912 fold
same,KRT24 Fold Change,vaginal tissue construct; gene keratin 24,1.619 fold
same,KRTDAP Fold Change,vaginal tissue construct; gene keratinocyte differentiation associated protein,15.751 fold and 15.7 fold
same,LCE1A Fold Change,vaginal tissue construct; gene late cornified envelope 1A,1.884 fold
same,LCE1C Fold Change,vaginal tissue construct; gene late cornified envelope 1C,4.063 fold
same,LCE1F Fold Change,vaginal tissue construct; gene late cornified envelope 1F,1.593 fold
same,LCE2A Fold Change,vaginal tissue construct; gene late cornified envelope 2A,6.392 fold
same,LCE2B Fold Change,vaginal tissue construct; gene late cornified envelope 2B,11.182 fold
same,LCE2C/LCE2D Fold Change,vaginal tissue construct; gene late cornified envelope 2D,24.247 fold
same,LCE3D Fold Change,vaginal tissue construct; gene late cornified envelope 3D,15.6 fold
same,LCE3E Fold Change,vaginal tissue construct; gene late cornified envelope 3E,16 fold
same,LCE5A Fold Change,vaginal tissue construct; gene late cornified envelope 5A,1.63 fold
same,LIPM Fold Change,vaginal tissue construct; gene lipase family member M,11.426 fold
same,LIPN Fold Change,vaginal tissue construct; gene lipase family member N,7.346 fold
same,LIPN1 Fold Change,vaginal tissue construct; gene lipin 1,3.775 fold
same,LOR Fold Change,vaginal tissue construct; gene loricrin,7.932 fold
same,LY6G6C Expr Fold Change,vaginal tissue construct; gene lymphocyte antigen 6 family member G6C,6.538 fold
same,HLA-C Expr Fold Change,"vaginal tissue construct; gene major histocompatibility complex, class C",−1.691 fold
same,HLA-B Expr Fold Change,"vaginal tissue construct; gene major histocompatibility complex, class I, B",−2.168 fold
same,HLA-DMB Expr Fold Change,"vaginal tissue construct; gene major histocompatibility complex, class II, DM beta",−1.591 fold
same,HLA-DPA1 Expr Fold Change,"vaginal tissue construct; gene major histocompatibility complex, class II, DP alpha 1",−1.7 fold
same,HLA-DRA Expr Fold Change,"vaginal tissue construct; gene major histocompatibility complex, class II, DR alpha",−2.792 fold
same,HLA-DRB6 Expr Fold Change,"vaginal tissue construct; gene major histocompatibility complex, class II, DR beta 6 (pseudogene)",−2.7 fold
same,ME1 Fold Change,"vaginal tissue construct; gene malic enzyme 1, NADP(+)-dependent cytosolic",2.9 fold
same,MUCL1 Fold Change,vaginal tissue construct; gene mucin like 1,~2 fold and 1.964 fold
same,NCR3LG1 Expr Fold Change,vaginal tissue construct; gene natural killer cell cytotoxicity receptor 3 ligand 1,2.482 fold
same,NFAT5 Expr Fold Change,vaginal tissue construct; gene nuclear factor of activated T cells 5,2.265 fold
same,OLFM4 Expr Fold Change,vaginal tissue construct; gene olfactomedin 4,−6.772 fold
same,PNLIPRP3 Fold Change,vaginal tissue construct; gene pancreatic lipase-related protein 3,1.6 fold
same,PLA2G2F Fold Change,vaginal tissue construct; gene phospholipase A2 group IIF,2.054 fold
same,PLA2G3 Fold Change,vaginal tissue construct; gene phospholipase A2 group III,2.218 fold
same,PLA2G4D Fold Change,vaginal tissue construct; gene phospholipase A2 group IVD,3.526 fold
same,PLA2G4E Fold Change,vaginal tissue construct; gene phospholipase A2 group IVE,3.36 fold
same,PLA2G10 Fold Change,vaginal tissue construct; gene phospholipase A2 group X,−3.027 fold
same,PLAC8 Fold Change,vaginal tissue construct; gene placenta-specific 8,−3.3 fold
same,PIGR Fold Change,vaginal tissue construct; gene polymeric immunoglobulin receptor,−2.4 fold
same,PDCD1LG2 Expr Fold Change,vaginal tissue construct; gene programmed cell death 1 ligand 2,−1.74 fold
same,RPS15A Expr Fold Change,vaginal tissue construct; gene ribosomal protein S15a,−1.78 fold
same,SERPINB12 Fold Change,vaginal tissue construct; gene serpin family B member 12,5.202 fold and 5.1 fold
same,STAT4 Expr Fold Change,vaginal tissue construct; gene signal transducer and activator of transcription 4,−2.518 fold
same,SPRR2G Fold Change,vaginal tissue construct; gene small proline rich protein 2G,10.387 fold
same,SPRR4 Fold Change,vaginal tissue construct; gene small proline rich protein 4,2.619 fold
same,SBSN Fold Change,vaginal tissue construct; gene suprabasin,4.36 fold and 4.3 fold
same,TLR3 Expr Fold Change,vaginal tissue construct; gene toll like receptor 3,−3.274 fold
same,TRPV3 Fold Change,vaginal tissue construct; gene transient receptor potential cation channel subfamily V member 3,2.8 fold and 2.804 fold
same,UBA7 Expr Fold Change,vaginal tissue construct; gene ubiquitin like modifier activating enzyme 7,−2.031 fold
same,VEGFA Fold Change,vaginal tissue construct; gene vascular endothelial growth factor A,2.0 fold and 1.885 fold
same,mir-23 Expr Fold Change,vaginal tissue construct; microRNA 23a,2.823 fold
same,mir-224 Expr Fold Change,vaginal tissue construct; microRNA 224,6.266 fold
same,MMP10 expression,vaginal tissue construct; result in words,downregulated
same,macrophages infiltrated into the tissue past 90 μm,EpiVaginal tissues,6%
same,agonist type by receptor internalization,[1],partial agonist
